Measurements as given in patent publication US20230106519A1, “GOLD(III)-BIGUANIDE PRODRUGS, METHODS OF PREPARATION AND USES THEREOF” (National University of Singapore, priority 2020, published 2023).
Where “and” joins values, the source holds several entries; their conditions need not be identical. Equal values may be shown once.

Key:
[1] = system: AC10 (human ventricular cardiomyocytes); assay: MTT toxicity assay in cardiomyocytes AC10; conditions: read-out: EC50 AC10; MTT assay, exposure time 72 hours
Method: (§2) Cell lines and culture conditions. Human ovarian carcinoma cells A2780 and A2780cisR, and human breast adenocarcinoma MDA-MB-231 cells, murine hepatocytes TAMH and human cardiomyocytes AC10 were obtained from ATCC.
(§3) Inhibition of cell viability assay. The cytotoxicity of the compounds was determined by colorimetric MTT assay. The cells were harvested from culture flasks by trypsinization and seeded into Cellstar 96-well microculture plates at the seeding density of 6000 cells per well (6×10^4 cells/mL). TAMH and AC10 cells were seeded at 12000 and 5000 cells per well, respectively. After cells were allowed to resume exponential growth for 24 hours, they were exposed to drugs at different concentrations in media for 72 hours. The drugs were diluted in complete medium at the desired concentration and added to each well (100 μL) and serially diluted to other wells. After exposure for 72 hours, the media was replaced with MTT in media (5 mg/mL, 100 μL) and incubated for additional 45 minutes. Subsequently, the medium was aspirated and the purple formazan crystals formed in viable cells were dissolved in DMSO (100 μL). Optical densities were measured at 570 nm using the BioTek H1 Synergy microplate reader. […] Evaluation was based on means from at least three independent experiments, each comprising six replicates per concentration level. For experiments with inhibitors, MDA-MB-231 cells were seeded at the seeding density of 8000 cells per well (8×10^4 cells/mL).

[2] = biological target: protein kinase B beta (PKBβ) (Homo sapiens, UniProt P31751, S474D); assay: Kinase screening, radioactive 33P-ATP filter-binding assay, PKBβ; conditions: 10 μM of 3met
Method: (§4) Kinase screening was performed at the International Centre for Kinase profiling (University of Dundee, UK) according to literature procedure (Bain J, Plater L, Elliott M, Shpiro N, Hastie C J, McLauchlan H, et al. The selectivity of protein kinase inhibitors: a further update. Biochem J 2007; 408:297-315).

[3] = system: A2780cisR (ovarian carcinoma); assay: MTT cytotoxicity assay, A2780cisR
Method: (§5) Human ovarian carcinoma cells A2780 and A2780cisR, and human breast adenocarcinoma MDA-MB-231 cells, murine hepatocytes TAMH and human cardiomyocytes AC10 were obtained from ATCC. […] The stock of cisplatin was commercially available clinical grade solution in saline buffer.
(§6) Inhibition of cell viability assay. The cytotoxicity of the compounds was determined by colorimetric MTT assay. The cells were harvested from culture flasks by trypsinization and seeded into Cellstar 96-well microculture plates at the seeding density of 6000 cells per well (6×10^4 cells/mL). TAMH and AC10 cells were seeded at 12000 and 5000 cells per well, respectively. After cells were allowed to resume exponential growth for 24 hours, they were exposed to drugs at different concentrations in media for 72 hours. The drugs were diluted in complete medium at the desired concentration and added to each well (100 μL) and serially diluted to other wells. After exposure for 72 hours, the media was replaced with MTT in media (5 mg/mL, 100 μL) and incubated for additional 45 minutes. Subsequently, the medium was aspirated and the purple formazan crystals formed in viable cells were dissolved in DMSO (100 μL). Optical densities were measured at 570 nm using the BioTek H1 Synergy microplate reader. […] Evaluation was based on means from at least three independent experiments, each comprising six replicates per concentration level.

[4] = tumor-bearing mice
Method: Organ distribution studies: At the experimental endpoint, the hearts were perfused with PBS immediately before the excision of the organs. Brain, liver, kidney, spleen, heart, lung, bone and tumor tissues were collected from each mouse and flash-frozen in liquid nitrogen. The organs of the vehicle-treated mouse were used for the measurements of the background. The organs were lyophilized for 4 days, weighed, mechanically minced and digested in 100 μl of ultrapure 65% HNO3 at 105° C. for 3 days. The resulting solution was diluted to 2% v/v HNO3 with ultrapure Milli-Q water. Gold content was measured by ICP-MS as described above.
Additionally, the Au biodistribution across various organs in tumor-bearing mice was assessed.

[5] = biological target: insulin receptor (IR) (Homo sapiens, UniProt P06213); assay: Kinase screening, radioactive 33P-ATP filter-binding assay, IR; conditions: 10 μM of 3met
Method: as §4

[6] = system: c-Jun N-terminal kinase (JNK); conditions: MDA-MB-231, apparent after 24 hours
Method: (§7) Western blotting. MDA-MB-231 cells were seeded into Cellstar 6-well plates (Greiner Bio-One) at a density of 60×10^4 cells/well (2 mL per well). After the cells were allowed to resume exponential growth for 24 hours, they were exposed to compounds of interest at various concentrations for 2, 6 and 24 hours. The cells were washed twice with PBS and lysed with RIPA buffer (50-100 μL) and kept for 5-10 minutes at 4° C. The samples were sonicated in ice bath (3 times for 30 seconds). The supernatant was then collected after centrifugation (1.3×10^4 rpm, 4° C. for 15 minutes) and total protein content of each sample was quantified via Bradford's assay. Equal quantities of protein (50 μg) were reconstituted in loading buffer (5× Laemmli Buffer with 5% DTT) and heated at 100° C. for 10 minutes. Subsequently, the protein mixtures were resolved on a 8%, 10% or 12% SDS-PAGE gel by electrophoresis (90 V for 30 minutes followed by 120 V for 60 minutes) and transferred onto a nitrocellulose membrane (200 mA for 2 hours). The protein bands were visualised with Ponceau S stain solution and the nitrocellulose membranes were cut into strips based on the protein ladder. The membranes were washed with a TBS-T wash buffer (0.1% Tween-20 in 1×PBS) 3 times for 5 minutes. […] Immune complexes were detected with Luminata HRP substrates and analysed using enhanced chemiluminescence imaging. […]

[7] = biological target: extracellular signal-regulated kinase 1 (ERK1) (Homo sapiens, UniProt P27361); assay: Kinase screening, radioactive 33P-ATP filter-binding assay, ERK1; conditions: 10 μM of 3met
Method: as §4

[8] = system: MDA-MB-231 tumors
Method: (§1) Animal experiments: 6-week-old female athymic nude mice were purchased from Invigo. Animals were housed in animal-holding units at Center for Comparative Medicine, Northwestern University in a pathogen-free environment at constant temperature in a 12/12-hour light/dark cycle. All animal procedures were carried out in accordance with a protocol approved by the Institutional Animal Care and Use Committee, Protocol number: IS00002999. Animals were acclimatized for 2 weeks following arrival before the beginning of experiments. Mice were allowed free access to food and water. […] MDA-MB-231 cells expressing firefly luciferase were collected by trypsinization and mixed with Matrigel (1:1) for fat pad injections. The MDA-MB-231 cell/matrigel mixture (100 μI) was injected into the fat pad of the fourth mammary glands on both sides of 6-week-old female athymic nude-Foxn1^nu mice (Envigo) at 2.5×10^5 cells/gland under ketamine/xylazine anesthesia (50-100/5-10 mg/kg). Ketaprofen and Buprenophrine SR were injected subcutaneously for pain management at 2-5 mg/kg and 0.5-1 mg/kg, respectively. The growth of tumors was monitored by live animal imaging. Once tumors became palpable (week 2 after tumor implantation), treatment was initiated. Animals were separated into two groups (7 mice in each group) and tumor dimensions were measured using a caliper by width×length (mm^2). […] Animals were sacrificed on week 6. Animals were controlled for distress development. Their weight changes were monitored every 2-3 days for 6 weeks. […] Statistical analysis was done by Student's unpaired T-test and One-way Anova test with post-hoc Dunnett test using GraphPad Prism 9 software.
Luciferase-transfected MDA-MB-231 cells were injected into […] 2 fat pads near inguinal nipples and tumor growth was controlled by bioluminescent imaging.

[9] = system: LC3-II, p62, Ulk1 (Ser757); assay: Western blot, autophagy markers
Method: Western blotting. MDA-MB-231 cells were seeded into Cellstar 6-well plates (Greiner Bio-One) at a density of 60×10^4 cells/well (2 mL per well). After the cells were allowed to resume exponential growth for 24 hours, they were exposed to compounds of interest at various concentrations for 2, 6 and 24 hours. The cells were washed twice with PBS and lysed with RIPA buffer (50-100 μL) and kept for 5-10 minutes at 4° C. The samples were sonicated in ice bath (3 times for 30 seconds). The supernatant was then collected after centrifugation (1.3×10^4 rpm, 4° C. for 15 minutes) and total protein content of each sample was quantified via Bradford's assay. Equal quantities of protein (50 μg) were reconstituted in loading buffer (5× Laemmli Buffer with 5% DTT) and heated at 100° C. for 10 minutes. Subsequently, the protein mixtures were resolved on a 8%, 10% or 12% SDS-PAGE gel by electrophoresis (90 V for 30 minutes followed by 120 V for 60 minutes) and transferred onto a nitrocellulose membrane (200 mA for 2 hours). The protein bands were visualised with Ponceau S stain solution and the nitrocellulose membranes were cut into strips based on the protein ladder. The membranes were washed with a TBS-T wash buffer (0.1% Tween-20 in 1×PBS) 3 times for 5 minutes. Subsequently, they were blocked in 5% BSA (w/v) in wash buffer for 1 hour and incubated with the appropriate primary antibodies in 5% BSA (w/v) in wash buffer at 4° C. overnight. The membranes were washed with a wash buffer 3 times for 7 minutes. After incubation with HRP-conjugated secondary antibodies in 2% BSA (w/v) in wash buffer (room temperature, 2 hours), the membranes were washed with a wash buffer 4× for 5 minutes. Immune complexes were detected with Luminata HRP substrates and analysed using enhanced chemiluminescence imaging. Actin was used as a loading control. […]
One of the hallmarks of autophagy was the conversion of cytosolic LC3-I to autophagosome-bound LC3-II which was monitored by Western Blotting.

[10] = system: MDA-MB-231 (breast adenocarcinoma); assay: MTT cytotoxicity assay, MDA-MB-231; conditions: read-out: EC50 MDA-MB-231; MTT assay, exposure time 72 hours
Method: as §5, §6

[11] = Stability in ammonium carbonate buffer by high resolution ESI-MS; conditions: ammonium carbonate buffer pH 7.4, 37° C., 1, 3 and 24 hours
Method: NMR and mass spectrometric (MS) methods were employed to characterize the stability of Au complexes in DMSO and aqueous media. ^1H NMR stability studies were performed over the period of 6-10 days in d^6-DMSO and D2O (1met*).

[12] = system: MDA-MB-231 cells
Method: Glycolysis Stress Test assay: Extracellular acidification rate (ECAR) was monitored by using Seahorse XF^e24 Glycolysis Stress Test Kit (Seahorse Bioscience). Prior to the assay, XF sensor cartridges were hydrated. MDA-MB-231 cells were seeded onto XF^e24-well cell culture plates at a density of 4×10^4 cells/well in 250 μL DMEM complete growth medium and then incubated for 48 hours at 37° C. in 5% CO2 incubator. The cells were subsequently exposed to compounds of interest at different concentrations for 24 hours. The wells were washed with 250 μL of pre-warmed Seahorse XF DMEM media, supplemented with 100 mM glutamine, pH 7.4 and replaced with 525 μL of this media. The plate was incubated at 37° C. in a non-CO2 incubator for 1 hour before the measurement. Three baseline measurements of ECAR were recorded and 10 mM of glucose, 1 μM of olygomycin and 100 mM of 2-deoxyglucose (2-DG) were added in sequence. ECAR was measured using Seahorse XF^e24 Cell Bioanalyzer (Seahorse Biosciences). The media was removed from the wells and 60 μL of 0.1 M NaOH was added. After vigorous pipetting, the protein content was quantified by BCA assay and OCR was normalized per protein content.

[13] = system: MDA-MB-231 cells; assay: Cellular accumulation of Au by ICP-MS; conditions: ICP-MS after 24 hour exposure at 1.4 μM
Method: Cellular accumulation of Au complexes was determined in MDA-MB-231 cells. Cells were seeded into Cellstar 6-well plates (Greiner Bio-one) at a density of 60×10^4 cells/well (2 mL per well). After the cells were allowed to resume exponential growth for 24 hours, they were exposed to compounds of interest at various concentrations for 24 hours at 37° C. The cells were washed twice with 1 mL of PBS and lysed with RIPA lysis buffer for 5-10 min at 4° C. The cell lysates were scraped from the wells and transferred to separate 1.5 mL microtubes. The supernatant was then collected after centrifugation (13000 rpm, 4° C. for 15 minutes) and total protein content of each sample was quantified via Bradford's assay. […] The resulting solution was diluted to 1 mL (2-4% v/v HNO3) with ultrapure Milli-Q water. Au content of each sample was quantified by ICP-MS. Re was used as an internal standard. […] Metal standards for calibration curve (0, 0.5, 1, 2, 5, 10, 20, 40 ppb) were freshly prepared before each measurement. All readings were made in triplicates in He mode.

[14] = system: MDA-MB-231 cells; remark: listed apart in the source
Method: Mitochondrial bioenergetics (MitoStress assay): Oxygen Consumption Rate (OCR) was monitored by using Seahorse XF^e24 Cell MitoStress Test Kit (Seahorse Bioscience). Prior to the assay, XF sensor cartridges were hydrated. MDA-MB-231 cells were seeded onto XF^e24-well cell culture plates at a density of 4×10^4 cells/well in 250 μL DMEM complete growth medium and then incubated for 48 h at 37° C. in 5% CO2 incubator. The cells were subsequently exposed to compounds of interest at different concentrations for 24 hours. The wells were washed with 250 μL of pre-warmed Seahorse XF DMEM media, supplemented with 10 mM glucose, 1 mM sodium pyruvate and 2 mM glutamine, pH 7.4 and replaced with 525 μL of this media. The plate was incubated at 37° C. in a non-CO2 incubator for 1 hour before the measurement. Three baseline measurements of OCR were recorded and 1 μM of olygomycin (ATP synthase complex inhibitor), 1 μM of FCCP (ATP synthesis uncoupler trifluorocarbonylcyanide phenylhydrazone) and a mixture of 0.5 μM of antimycin-A (inhibitor of complex III) and 0.5 μM of rotenone (inhibitor of electron transfer from Fe-S center of complex I to ubiquinone) were added in sequence. OCR was measured using Seahorse XF^e24 Cell Bioanalyzer (Seahorse Biosciences). The media was removed from the wells and 60 μL of 0.1 M NaOH was added. After vigorous pipetting, the protein content was quantified by BCA assay and OCR was normalized per protein content.

[15] = system: A2780 (ovarian carcinoma); assay: MTT cytotoxicity assay, A2780; conditions: read-out: EC50 A2780; MTT assay, exposure time 72 hours
Method: as §5, §6

[16] = system: MDA-MB-231 tumors; assay: Histopathological examination of H&E-stained tumors (QuPath)
[17] = Method: as §1
The tolerability of the chosen dose level was judged based on the weight loss and clinical score.

[18] = biological target: T1, rat liver TrxR (Rattus norvegicus, UniProt O89049); assay: Thioredoxin reductase inhibition, DTNB reduction assay; conditions: read-out: IC50 TrxR; DTNB reduction assay, exposure time 30 min
T1 sequence (O89049 1-499): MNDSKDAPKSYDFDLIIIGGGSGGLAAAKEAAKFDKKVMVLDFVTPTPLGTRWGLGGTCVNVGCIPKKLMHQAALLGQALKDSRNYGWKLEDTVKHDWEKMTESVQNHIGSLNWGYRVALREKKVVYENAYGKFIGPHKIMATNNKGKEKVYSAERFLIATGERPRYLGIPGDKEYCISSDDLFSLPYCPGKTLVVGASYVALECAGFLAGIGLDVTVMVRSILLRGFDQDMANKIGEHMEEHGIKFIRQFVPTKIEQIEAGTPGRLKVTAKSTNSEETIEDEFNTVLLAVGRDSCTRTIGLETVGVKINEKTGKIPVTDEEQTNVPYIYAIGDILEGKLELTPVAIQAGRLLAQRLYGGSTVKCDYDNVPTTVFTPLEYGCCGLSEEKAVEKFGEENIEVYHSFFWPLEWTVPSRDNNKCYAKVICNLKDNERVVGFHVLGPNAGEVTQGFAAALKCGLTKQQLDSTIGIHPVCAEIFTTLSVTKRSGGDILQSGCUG
Method: Thioredoxin reductase inhibition assay. Assay was performed according to the protocol provided by the manufacturer. […] Compounds of interest were serially diluted at the separate 96-well plate and 4 μl of each concentration was added to the appropriate wells. The reaction mixture was incubated with gentle shaking (room temperature, 30 minutes). Subsequently, 6 μl of DNTB (100 mM) was added and incubated for an additional 3 minutes.
Compounds of interest at six different concentrations were incubated with the isolated rat liver TrxR enzyme in the presence of NADPH for 30 minutes, followed by 2 minutes incubation with the DNTB reagent.

[19] = system: TAMH (transforming growth factor-a transgenic mouse hepatocytes); assay: MTT toxicity assay in hepatocytes TAMH; conditions: read-out: EC50 TAMH, exposure time 72 hours
Method: as §2
Inhibition of cell viability assay. The cytotoxicity of the compounds was determined by colorimetric MTT assay. The cells were harvested from culture flasks by trypsinization and seeded into Cellstar 96-well microculture plates at the seeding density of 6000 cells per well (6×10^4 cells/mL). TAMH and AC10 cells were seeded at 12000 and 5000 cells per well, respectively. After cells were allowed to resume exponential growth for 24 hours, they were exposed to drugs at different concentrations in media for 72 hours. The drugs were diluted in complete medium at the desired concentration and added to each well (100 μL) and serially diluted to other wells. After exposure for 72 hours, the media was replaced with MTT in media (5 mg/mL, 100 μL) and incubated for additional 45 minutes. Subsequently, the medium was aspirated and the purple formazan crystals formed in viable cells were dissolved in DMSO (100 μL). Optical densities were measured at 570 nm using the BioTek H1 Synergy microplate reader. […] Evaluation was based on means from at least three independent experiments, each comprising six replicates per concentration level. […]

[20] = system: BiP, CHOP, p-elF2α; conditions: 0.5 and 2EC50, 2, 6 and 24 hours
Method: as §7

[21] = Reactivity towards glutathione, ligand release (HR-MS, UV-vis); assay type: physicochemical
Description: NMR- and MS-based stability studies.
Intriguingly, the reactivity of Au^III-metformin complexes towards GSH was drastically different despite their similar structures.

[22] = system: MDA-MB-231 cells; remark: listed apart in the source
Method: as §3

Sequence of extracellular signal-regulated kinase 1 (ERK1) (P27361 whole entry): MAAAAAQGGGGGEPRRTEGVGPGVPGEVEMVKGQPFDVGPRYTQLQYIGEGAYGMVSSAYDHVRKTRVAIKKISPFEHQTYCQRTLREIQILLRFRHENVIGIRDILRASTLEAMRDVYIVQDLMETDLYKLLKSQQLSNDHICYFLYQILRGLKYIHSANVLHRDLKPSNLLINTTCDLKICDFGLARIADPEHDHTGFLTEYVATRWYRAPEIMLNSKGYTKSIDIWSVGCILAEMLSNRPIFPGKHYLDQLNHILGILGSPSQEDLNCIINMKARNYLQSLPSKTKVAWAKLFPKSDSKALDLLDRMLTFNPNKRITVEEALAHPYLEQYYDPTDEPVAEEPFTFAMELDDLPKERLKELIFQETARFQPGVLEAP
Sequence of protein kinase B beta (PKBβ) (P31751 120-481 S474D limits assumed): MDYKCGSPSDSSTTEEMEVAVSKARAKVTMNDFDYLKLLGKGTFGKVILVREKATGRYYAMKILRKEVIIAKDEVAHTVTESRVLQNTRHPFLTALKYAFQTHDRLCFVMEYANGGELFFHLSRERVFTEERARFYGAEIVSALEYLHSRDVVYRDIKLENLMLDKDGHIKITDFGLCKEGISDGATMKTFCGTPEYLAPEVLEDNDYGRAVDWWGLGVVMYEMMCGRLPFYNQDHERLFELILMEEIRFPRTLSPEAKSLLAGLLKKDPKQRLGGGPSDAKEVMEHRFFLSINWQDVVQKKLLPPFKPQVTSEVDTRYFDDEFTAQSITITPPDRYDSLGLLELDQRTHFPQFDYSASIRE
Sequence of insulin receptor (IR) (P06213 1001-1382 limits assumed): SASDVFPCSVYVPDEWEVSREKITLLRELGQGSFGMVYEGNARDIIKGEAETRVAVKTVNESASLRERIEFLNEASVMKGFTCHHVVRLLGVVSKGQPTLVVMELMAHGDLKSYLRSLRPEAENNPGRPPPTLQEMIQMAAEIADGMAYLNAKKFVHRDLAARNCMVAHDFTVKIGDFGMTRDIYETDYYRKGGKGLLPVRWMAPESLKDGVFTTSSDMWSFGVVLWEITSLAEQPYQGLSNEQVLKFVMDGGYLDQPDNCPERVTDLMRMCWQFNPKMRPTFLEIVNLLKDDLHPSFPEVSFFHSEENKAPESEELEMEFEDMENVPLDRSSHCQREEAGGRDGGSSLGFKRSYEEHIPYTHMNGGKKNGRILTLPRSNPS

## CN(C)C1=[NH+][Au-]2([NH]C(N)=N1)[c]1ccccc1C(=O)c1cccc[n+]12.F[P-](F)(F)(F)(F)F (stereo not shown) [Compound 3met]
[1]
  EC50: 7.4 ± 3 µM
[2]
  inhibition of PKBβ: 100%
[3]; IC50 (A2780cisR)/IC50 (A2780)
  RF (Resistance Factor): 4
[3]; read-out: EC50 A2780cisR, MTT assay, exposure time 72 hours
  EC50: 530 ± 70 nM
[4]
  Au biodistribution in words: selectively accumulated in tumors
[5]
  inhibition of IR kinase: 70%
[6]
  JNK phosphorylation: JNK phosphorylation already at 0.5 EC50 drug concentrations
[7]
  inhibition of ERK1: 90%
[8]; 15 mg/kg i.p., weeks 3, 4 and 5, vs vehicle
  tumor growth: no tumor growth was observed after week 3
[8]; 15 mg/kg, 7 mice per group
  deaths in drug-treated group: Two mice died
[8]; H&E, endpoint, 5 weeks
  kidney histopathology: distorted glomeruli, dilated tubules, edema exudate, light necrosis
  liver histopathology: vacualization, fatty changes, periportal lymphoid infiltration and expansion of Disse space in A and B, and focal necrosis in C
[9]; 2EC50, 24 hours
  Ulk1 phosphorylation at Ser757: marked dephosphorylation of Ulk1 at Ser757 site
[9]; MDA-MB-231
  p62 levels: increase of p62 levels
[9]; MDA-MB-231, concentration- and time-dependent
  LC3-II expression: significantly enhanced the expression of LC3-II
[10]
  EC50: 720 ± 80 nM
[11]
  stability, detection of molecular ion [M]+: stable for 24 hours
[12]; 0.05 μM, 24 hours
  glycolytic parameters (ECAR), low concentration: significant increase of all glycolytic parameters
[12]; 1.5 μM, 24 hour exposure
  glycolytic reserve (ECAR), higher concentration: significantly declined glycolytic reserve
[13]
  Cellular accumulation MDA-MB-231: 1.37 ± 0.48 nmol Au/mg protein
[14]; 24 hours
  non-mitochondrial respiration: not significantly inhibited
[14]; 24 hours, increasing concentrations
  mitochondrial bioenergetic parameters (OCR): dose-dependent progressive decrease of all mitochondrial bioenergetic parameters
[14]; as low as
  concentration significantly inhibiting mitochondrial respiration: 1.5 µM
[15]
  EC50: 150 ± 30 nM
[16]; H&E
  inflammatory cells infiltration of tumors: marked inflammatory cells infiltration
[16]; single tumor image
  Area: 23769502 μm^2 and 27637537.7 μm^2 and 28709913 μm^2
  Necrosis %: 32.52% and 41% and 26.24%
  Necrosis area: 7.73 mm^2 and 11.33 mm^2 and 7.533 mm^2
  Perimeter: 20891.3 μm and 25672.2 μm and 21813.3 μm
  Tumor %: 60.11% and 34.58% and 66.37%
  Tumor area: 14.29 mm^2 and 9.556 mm^2 and 19.05 mm^2
[17]; 20 mg/kg, day 6
  weight loss: 11% and 10%
[17]; histopathological changes
  dose-limiting toxicity: kidney and liver toxicity
[17]; intraperitoneal route, daily for 4-5 days
  maximum tolerated dose (MTD): 15 mg/kg
[18]
  IC50: 1.3 ± 0.3 nM
[19]
  EC50: 2700 ± 700 nM
[20]
  CHOP expression over time: time-dependent increase of CHOP
[21]; 1 eq. GSH, ammonium carbonate
  decrease of peak area of 3met+ (M+) signal: more than 27 fold
[21]; 1 eq. GSH, ammonium carbonate, after 3 hours
  increase of peak area of metformin signal (m/z 130.1078): more than 5 fold
[21]; with GSH, HR-MS and UV-vis
  reactivity towards GSH / ligand release in words: time-dependent release of metformin
[22]; 3-methyladenine 2 mM, 24 hours
  increase of 3met activity in presence of 3-MA: more than 2 times
[22]; CHX 12.5 μM, 24 hours
  abrogation of 3met-induced cell death by cycloheximide: ≈ 3.5 times
[22]; JNK inhibitor SP600125 20 μM
  abrogation of 3met activity by SP600125: ≈ 1.7 fold
